`N#CSc1cc(Cl)c(Cl)c2sc(NC(=O)Nc3ccc(Br)cc3)nc12` gave a melting point of 243 to 245 °C.
`CS(=O)(=O)c1ccc(-c2cc(C(CCCO[N+](=O)[O-])=NO)nn2C2CCCCC2)cc1` showed a melting point of 121 to 123 °C.
With `CC(C)c1ccc(Cl)nn1` the melting point was 32 to 33 °C.
In the case of `Brc1ccc2c(c1)C1(OCCCO1)C1=NCCCN12`, the melting point was 145 to 149 °C.
For `CCOC(=O)C(Cc1ccccc1CCBr)(NC(C)=O)C(=O)OCC`, the melting point was 86 to 86.5 °C.
Molecule `COc1cc(-c2ccccc2)nc(-c2ccc(CBr)cc2)n1` has a melting point of 98 to 100 °C.
Molecule `O=C1CSCc2cc(Cl)ccc21` has a melting point of 79.5 to 82 °C.
Molecule `O=C1CCc2cc(Cl)c(S(=O)(=O)Cl)cc21` has a melting point of 146 to 148 °C.
In the case of `O=C1NC(C(Cl)(Cl)Cl)Nc2ccccc21` (stereo unspecified), the melting point was 201 to 202 °C.
Molecule `COC(=O)CCCc1cc2cc(Cl)ccc2n1S(=O)(=O)c1ccc2c(c1)CCN2C(C)=O` has a melting point of 162 to 165 °C.
In the case of `COc1cc(C)c2nc3cccc(OC)c3nc2c1`, the melting point was 201 to 202 °C.
In the case of `N#Cc1ccc2c(c1)C(=O)NC(C(Cl)(Cl)Cl)O2` (stereo unspecified), the melting point was 212 to 214 °C.
Molecule `Cc1cccc(NC(=O)NCC(=O)N(CC(=O)OC(C)(C)C)c2ccccc2OC(F)(F)F)c1` has a melting point of 163 °C.
Work on `Cc1c(C(=O)Nc2ccc(N3CCNCC3)c(C#N)c2)cnn1-c1ccc(F)cc1` yielded a melting point of 218 to 219 °C.
`COc1ccc(CC(C)CC(C(=O)C(CC(C)Cc2ccc(OC)c(OC)c2)N2C(=O)c3ccccc3C2=O)N2C(=O)c3ccccc3C2=O)cc1OC` (stereo unspecified) showed a melting point of 128 °C.
`O=CNCc1ccc2[nH]cc(CCCN3C(=O)c4ccccc4C3=O)c2c1` gave a melting point of 150 to 152 °C.
In the case of `CC(=O)c1c(F)c(F)c(OCCOc2ccc3ccccc3c2)c(F)c1F`, the melting point was 114 to 115 °C.
Molecule `O=C(O)C(CCc1ccc2c(c1)CCO2)NC(=O)C(F)(F)F` (stereo unspecified) has a melting point of 125 °C.
For `COc1nc(SC)nc(Cl)c1C(=O)NCc1ncccn1`, the melting point was 176 to 177 °C.
For `CC1(C)C2CCC(C2)C1CCC(O)CCC1C2CCC(C2)C1(C)C` (stereo unspecified), the melting point was 55 to 56 °C.
In the case of `CN(Cc1ccc(CCn2cnc3cc(-c4ccc(Cl)cc4)sc3c2=O)cc1)C(=O)C1CC1`, the melting point was 178 °C.
`CN(C(=O)CCCOc1ccc2[nH]c(=O)oc(=O)c2c1)C1CCCCC1` showed a melting point of 222 to 224 °C.
Work on `O=C1CCC(N2Cc3c(OCc4ccc(S(=O)(=O)N5CCOCC5)cc4)cccc3C2=O)C(=O)N1` (stereo unspecified) yielded a melting point of 308 to 310 °C.
In the case of `CCOC(=O)CCC(=O)[C@H](Cc1ccccc1)NC(=O)OC(C)(C)C`, the melting point was 56 to 58 °C.
With `COc1cc(CCCC2OC(=O)NC2=O)ccc1OCc1nc(-c2ccc3ccccc3c2)oc1C` (stereo unspecified) the melting point was 173 to 174 °C.
`CSC(=Cc1ccccc1N(Cc1ccccc1)c1c(Cl)cccc1Cl)S(C)=O` (stereo unspecified) showed a melting point of 194 to 196 °C.
With `CC(Sc1nc(Cl)cc(NCc2ccc(Cl)cc2)n1)C(=O)O` (stereo unspecified) the melting point was 133 to 136 °C.
With `CCC(C)(C)c1ccc(OCCCNC(=O)c2cc(N=C=S)c3ccccc3c2O)c(C(C)(C)CC)c1` the melting point was 91 to 94 °C.
With `CC1CC(=O)NN=C1c1cc2cc(O)c(O)cc2s1` (stereo unspecified) the melting point was > 270 °C.
With `CC(=O)c1ccc(-c2ccc(F)cc2Br)cc1` the melting point was 70 to 72 °C.
In the case of `CC(=O)Cc1nc2ccccc2c(=O)o1`, the melting point was 120 to 122 °C.
`FS(F)(F)(F)(Cl)c1cccc(S(F)(F)(F)(F)Cl)c1` gave a melting point of 82 to 83.5 °C.
In the case of `O=C(O)CC1(O)CCC(N2CCC(Nc3ccncc3)CC2)CC1` (stereo unspecified), the melting point was 261 °C.
For `OC1(c2ccc(Cl)cc2)c2ccc(Cl)cc2-c2ncncc21` (stereo unspecified), the melting point was 194 to 196 °C.
With `Clc1ccc2c(n1)[nH]c1ccc(Br)cc12` the melting point was > 220 °C.
Molecule `Nc1c(C(=O)c2ccc(Cl)cc2)oc2ccccc12` has a melting point of 202 to 204 °C.
For `C=C1CC(C(=O)O)NC(C(=O)O)C1` (stereo unspecified), the melting point was > 250 °C.
In the case of `NP(N)(=O)c1ccccc1`, the melting point was 187 to 191 °C.
`CCN1CC(NC(=O)c2cc(Cl)c(N)cc2OC)CN1CC` gave a melting point of 117 to 119 °C.
`CC(C)=CCC/C(C)=C/CC/C(C)=C/CC/C(C)=C/CON1C(=O)c2ccccc2C1=O` showed a melting point of 40 to 41 °C.
`COC(=O)C(c1ccccc1)c1cn[nH]c1` (racemic) showed a melting point of 100 to 103 °C.
`CCOCc1cc2ccc(OC)cc2o/c1=N\c1ccccc1` gave a melting point of 107 to 108 °C.
Work on `OCc1ccccc1-c1ccc(CBr)cc1` yielded a melting point of 101 to 106 °C.
`CC(C)(C)C1=C(c2cc3cc(O[Si](C)(C)C(C)(C)C)ccc3s2)OCC1(C)C` gave a melting point of 88 to 89 °C.
`CCCCCc1ccc(C(=O)CCC(=O)O)cc1` gave a melting point of 98 to 100 °C.
`O=C(CCCCCc1ccc(Cl)cc1)Nc1ccc(C(=O)O)cc1` showed a melting point of 218 to 220 °C.
In the case of `COc1ccc(C=CCC#N)cc1`, the melting point was 75 to 76 °C.
Molecule `Cc1[nH]ncc1C(=O)O` has a melting point of 223 °C.
`CC(C)(C)C(F)(F)c1ccc(C[C@H](N)[C@H](O)c2cccc(Cl)c2)cc1` (racemic) gave a melting point of 105 to 107 °C.
In the case of `Cc1cc(N)cc(C)c1Oc1ccc(O)c(C(C)C)c1`, the melting point was 180 to 181 °C.
Work on `Cc1nc[nH]c1CSCCNc1nc(C)c(-c2ccccc2)c(=O)[nH]1` yielded a melting point of 216 to 218 °C.
In the case of `O=C(O)C1=Cc2cc(Cl)cc(-c3ccccc3)c2OC1C(F)(F)F` (stereo unspecified), the melting point was 196 to 198 °C.
Molecule `O=C1C[C@@H]2[C@@H](/C=C/C(=O)C3CCCCC3)[C@H](OC(=O)c3ccccc3)C[C@@H]2O1` has a melting point of 151 to 153 °C.
`CC1(Br)CS(=O)C2C(NC(=O)Cc3ccccc3)C(=O)N2C1C(=O)OCC(Cl)(Cl)Cl` (stereo unspecified) showed a melting point of 159 to 161 °C.
Molecule `CCC(O)(CC)[C@H](C[C@H](O)[C@H](CC1CCCCC1)NC(=O)[C@H](Cc1cscn1)NC(=O)OC(C)(C)C)C(=O)NC` has a melting point of 165 to 168 °C.
Work on `O=C(O)CCc1cc(OCCCc2cn(-c3ccc(C(F)(F)F)cn3)nc2-c2ccccc2)nn1-c1ccccc1` yielded a melting point of 175 to 176 °C.
With `CCCn1c(=O)c2nc(C(=O)O)cn2c2ccccc21` the melting point was 232 to 234 °C.
Molecule `Cc1c(C#Cc2ccc(C(F)(F)F)cc2)ccc(N)c1C#N` has a melting point of 136 to 138 °C.
For `CN(C)c1nc(Cl)nc(N2CCOCC2)n1`, the melting point was 96 to 97 °C.
For `CCN(C(=O)OC(C)(C)C)C1CC=C(c2c[nH]c3ccc(NC(=N)c4cccs4)cc23)CC1` (stereo unspecified), the melting point was 124 to 126 °C.
For `Cn1nnnc1CC(O)(c1ccccc1)c1ccccc1`, the melting point was 175 to 176 °C.
For `Brc1ccc(SCc2ncon2)cc1`, the melting point was 56 °C.
In the case of `CSCCCn1cc(C2=C(c3cn(C)c4ccccc34)C(=O)NC2=O)c2ccccc21`, the melting point was 222 to 224 °C.
Molecule `O=C(CCc1nc(CCl)no1)c1ccc(-c2ccccc2)cc1` has a melting point of 153 to 154 °C.
Molecule `CC1(C)OC(=O)Nc2ccc(-c3cccc(CC#N)n3)cc21` has a melting point of 210 to 212 °C.
For `CCOC(=O)COc1ccc(S(=O)CCNS(=O)(=O)c2ccccc2)cc1` (stereo unspecified), the melting point was 116 to 118 °C.
`CN(C)C1(c2ccccc2)CCC(CC(=O)N2CCC(c3c[nH]c4ccccc34)C2)CC1` (stereo unspecified) gave a melting point of 98 to 100 °C.
For `CC(=O)OCc1ccc2cc(C(=O)O)ccc2c1`, the melting point was 180 to 190 °C.
`CCCCOc1c(C(OC(N)=O)C(C)(C)C)n(CC(C)(C)C)c(=O)c2ccc(OCC)cc12` (stereo unspecified) showed a melting point of 138 to 139 °C.
`CSc1snc(OCC#CI)c1C#N` showed a melting point of 145 to 146 °C.
For `CC(=O)Oc1ccc(S(=O)(=O)ON=C2c3ccccc3-c3ccccc32)cc1`, the melting point was 167 to 168 °C.
Work on `CC(Nc1ccc(Oc2ccc(O)cc2)cc1)C(=O)O` (stereo unspecified) yielded a melting point of 188 °C.
In the case of `O=C(NC1CCC(CCN2CCC(c3cccc4c3CCO4)CC2)CC1)C1CC1(F)F` (stereo unspecified), the melting point was 199 °C.
`C[C@@H](NC(=O)c1c[nH]c2ncc(-c3nn(C)c4cc(F)ccc34)nc12)C(=O)N1CC(C#N)C1` gave a melting point of 270 to 277 °C.
Work on `CCCCn1cncc1C(O)(c1ccc(Cl)cc1)c1ccc2c(c1)c(-c1cccc(Cl)c1)cc(=O)n2C` (stereo unspecified) yielded a melting point of 175 °C.
`CC(C)c1ccc(NC(=O)C(F)(F)F)cc1` gave a melting point of 98 °C.
`COC(=O)c1cccc(-c2nc(C(N)=O)c3[nH]c(=O)n(-c4ccccc4OC)c3n2)c1` gave a melting point of 265 to 266 °C.
`Cc1ccc2c(c1)CN(C(=O)NCCc1ccc(S(=O)(=O)NC(=O)NC3CCCCC3)cc1)C2=O` gave a melting point of 216 to 218 °C.
In the case of `O=C(Cc1cc(F)cc(F)c1)N[C@@H](Cc1cc2ccccc2[nH]1)C(=O)N[C@@H]1C(=O)Nc2ccccc2S[C@@H]1c1ccccc1`, the melting point was 85 to 90 °C.
`N#Cc1cccc(-n2c(=O)c(N3CCCCCC3)cc3cccnc32)c1` showed a melting point of 215 to 217 °C.
In the case of `N#CC1=C(COCc2ccccc2)Nc2n[nH]cc2C1c1ccccc1Cl` (stereo unspecified), the melting point was 165 to 166 °C.
In the case of `O=C(c1ccc(Cl)cc1)N1CCc2cc(S(=O)(=O)n3cc(-c4ccccc4)[nH]c3=O)ccc21`, the melting point was 220 to 221 °C.
`CC=C1CCC2C3CCC4CC(O)C(OCC)CC4(C)C3C(N)CC12C` (stereo unspecified) showed a melting point of 65 to 70 °C.
Molecule `CC(C)(C)c1cnc(CSc2cnc(NC(=O)Cc3ccc(OCCCC(=O)Nc4ccccn4)cc3)s2)o1` has a melting point of 126 to 129 °C.
For `Cc1cc(NS(=O)(=O)c2ccccc2)cnc1CCCC#N`, the melting point was 119 to 120 °C.
`CCCC[C@H](NC(=O)OC(C)(C)C)C(=O)CSCc1ccsc1` showed a melting point of 43 to 45 °C.
Molecule `CC(=O)OC1CN=C(c2ccccc2Cl)c2ccccc2N(C)C1` (stereo unspecified) has a melting point of 129 to 131 °C.
In the case of `O=C(O)Cc1csc(-c2ncccc2O)n1`, the melting point was 175 to 176 °C.
`CCOC(=O)C(Cc1ccc(C(=O)C(C)(C)C)cc1)Cc1ccc(C(=O)C(C)(C)C)cc1` showed a melting point of 60 to 63 °C.
`CS(=O)(=O)c1cc(C(=O)N=C(N)N)ccc1C(F)(F)F` gave a melting point of 146 to 147 °C.
With `Cc1cc2c(cc1C)C(=O)C(=O)N2` the melting point was 217 to 218 °C.
Work on `COC(=O)c1cc2ccc(N3CCOCC3)cc2c2c1C=CC(c1ccc(OC)cc1)(c1ccc(OC)cc1)O2` yielded a melting point of 154 to 155 °C.
`CC(C)(O)CNc1c([N+](=O)[O-])cnc2cc(Br)cnc12` gave a melting point of 189 to 190 °C.
Work on `NC(=O)Cc1ccc(Nc2nc(OCC3CCCCC3)c3nc[nH]c3n2)cc1` yielded a melting point of 234 °C.
`O=C(O)c1cccnc1N1CCN(CCOC2c3ccccc3CSc3ccccc32)CC1` (stereo unspecified) showed a melting point of 217 to 218 °C.
For `CCc1nn2c(-c3cccc(C(F)(F)F)c3)c(C)cnc2c1C#N`, the melting point was 163 to 164 °C.
`Nc1ccc(Oc2ncc(-c3ccccc3)c(C(F)(F)F)n2)cc1` showed a melting point of 123 to 126 °C.
In the case of `N#Cc1ccnc(C(N)=O)c1N`, the melting point was > 310 °C.
Molecule `COC(=S)c1[nH]c2ccc(Cl)cc2c1-c1ccccc1` has a melting point of 193 to 196 °C.
Work on `COC(=O)CC(C)C1CCC2C3CC=C4CC(O)CC(O)C4(C)C3CCC12C` (stereo unspecified) yielded a melting point of 144 to 146 °C.
With `CCN1C(=O)N=NC1c1cccc(F)c1` (stereo unspecified) the melting point was 135 to 140 °C.
